Where two headings read alike, the source gives them in different places.
Assays:
Type in all cases: cell-based
[1] = test system: normal cells; assay: MTT cytotoxicity assay; conditions: highest compound concentration giving optical density ≧75% of control, 68 hours incubation
Protocol: This assay measures cell viability, and therefore cytotoxicity, by quantitatively detecting the in situ reduction of 3-(4,5-dimethylthiazol-2-yl)-2,5-diphenyltetrazolium bromide (MTT) by viable cells. Cells are seeded in 96-well plates in DMEM containing 5% FBS at a density of 4×10^3 cells per well. After incubation for 4 hours at 37° C. and 5% CO2, 2-fold serial dilutions of compound in 1% DMSO (or solvent alone) are added to quadruplicate wells and the plates are incubated for an additional 68 hours at 37° C. and 5% CO2, which is equivalent to 3 to 4 cell doublings. The culture medium is removed, and the cells are treated with 1 mg/ml of MTT in phosphate-buffered saline, pH 7.2 for 4 hours at 37° C. and 5% CO2. After removal of the unreduced MTT, the reduced blue formazan crystals produced by the viable cells are solubilized by the addition of 0.04N HCl in isopropanol. The optical density at 570 nm (OD570) of each well is read using a suitable microplate reader. Cell viability is expressed as the percentage of optical density for compound-treated cells relative to the optical density of solvent alone-treated control wells. The highest compound concentration resulting in an optical density of≧75% of the control is represented as the cellular cytotoxicity value (CC75).

[2] = test system: goat RSV; assay: Cell culture assay for inhibition of pneumovirus replication, GRSV; conditions: protection from cytopathic effect
Protocol: (§1) The replication of many viruses may be quantitatively assessed in the laboratory in various cell or tissue culture systems. Such in vitro culture methodologies are available and useable by those skilled in the art for the propagation and quantitative measurement of the replication of pneumoviruses. The following procedure was used for the in vitro quantitative measure of RSV replication.
(§2) Using the procedure described in this example, compounds of the present invention were evaluated for their ability to inhibit the replication of the virus in cell culture. By adding compounds at various concentrations to the culture medium, a dose response effect of the compound on virus replication was determined. A useful quantitative measure of the inhibition of RSV replication in this assay is the concentration of the compound at which virus replication in cell culture is inhibited by 50% in comparison to that observed in the absence of the compound (50% Inhibitory Concentration, IC50). In the case of RSV, IC50 values are defined as the concentration of compound that protected 50% of the cell monolayer. from virus-induced cytopathic effect (syncytia formation).
Anti-pneumovirus compounds of the invention were screened for antiviral activity against RSV (strain Long) on cultured HEp2 cells. […] After rinsing and drying the plates, the optical density of the wells was measured at 570 nm (OD570).
To determine IC50 values for the test compounds,the mean value of the OD570 readings of the virus control wells (VC) on a plate was substracted from the OD570 readings of all wells on that plate. The IC50 values were then calculated according to the following formula: […]
where Y represents the mean OD570 reading of the cell control wells (CC) divided by 2; B represents the mean OD570 reading of wells of the compound dilution nearest to and below Y; A represents the mean OD570 reading of wells of the compound dilution nearest to and above Y; L represents the compound concentration at B; and H represents the compound concentration at A. […]

[3] = test system: bovine RSV; assay: Cell culture assay for inhibition of pneumovirus replication, BRSV; conditions: protection from cytopathic effect
Protocol: as §1, §2
(§3) Anti-pneumovirus compounds of the invention were screened for antiviral activity against RSV (strain Long) on cultured HEp2 cells. Standard 96-well culture plates were seeded with 4×10^4 HEp2 cells in 200 μL of Minimal Essential Medium with Earles salts (EMEM) supplemented with 10% fetal bovine serum (FBS). Twenty-four to 30 hours later, the cells were infected with a dilution of RSV in Medium 199 (GIBCO/BRL) with 5% FBS that had been titrated to yield>85% destruction of the cell monolayer in 60 hours. After 1 hour at […], compounds were added to wells of the plate in a final DMSO concentration of 0.5% as a series of 10 two-fold dilutions of the compound. Virus control wells (VC, no test compound) and cell culture control wells (CC, no virus, no test compound) were also included on each plate. Plates were incubated in a humidified atmosphere at 37° C. and 5% carbon dioxide. After 60 hours, 100 μL of a 5% solution of glutaraldehyde in water was added to each well, and the wells were incubated at room temperature for 1 hour. The fixative was removed, and the cells were stained with a 0.1% solution of crystal violet in water for 15-30 minutes. After rinsing and drying the plates, the optical density of the wells was measured at 570 nm (OD570).
(§4) To determine IC50 values for the test compounds,the mean value of the OD570 readings of the virus control wells (VC) on a plate was substracted from the OD570 readings of all wells on that plate. The IC50 values were then calculated according to the following formula:
(§5) IC50=[(Y—B)/(A—B)]×(H—L)+L
(§6) where Y represents the mean OD570 reading of the cell control wells (CC) divided by 2; B represents the mean OD570 reading of wells of the compound dilution nearest to and below Y; A represents the mean OD570 reading of wells of the compound dilution nearest to and above Y; L represents the compound concentration at B; and H represents the compound concentration at A.
(§7) A similar assay is useful for various strains of human RSV, including subtype A and subtype B viruses, as well as other pneumoviruses.

[4] = test system: human RSV subtype B; assay: Cell culture assay for inhibition of pneumovirus replication, RSV-B; conditions: protection from cytopathic effect
Protocol: as §1, §2, §3, §4, §5, §6, §7

[5] = test system: ovine RSV; assay: Cell culture assay for inhibition of pneumovirus replication, ORSV; conditions: protection from cytopathic effect
Protocol: as §1, §2, §3, §4, §5, §6, §7

[6] = test system: human RSV subtype A; assay: Cell culture assay for inhibition of pneumovirus replication (protection from virus-induced cytopathic effect), RSV-A
Protocol: as §1, §2, §3, §4, §5, §6, §7

[7] = Activity against human RSV subtype A (Table 2), values marked 2: protection achieved only 70-90% at highest concentrations tested, read-out: IC50
[8] = human RSV subtype A, concentration protecting 50% of cell monolayer from virus-induced cytopathic effect, HEp2 cells, 60 hours, read-out: IC50 RSV-A
[9] = human respiratory syncytial virus

Row | IC50 [3] | IC50 [4] | IC50 [6, 7] | IC50 [6, 8] | IC50 ([3]; Bovine orthopneumovirus) | IC50 [4, 9] | IC50 [5, 9] | IC50 ([6]; human respiratory syncytial virus, HEp-2, human RSV subtype A, concentration protecting 50% of cell monolayer from virus-induced cytopathic effect, HEp2 cells, 60 hours, read-out: IC50 RSV-A) | IC50 ([6]; human respiratory syncytial virus, Activity against human RSV subtype A (Table 2), values marked 2: protection achieved only 70-90% at highest concentrations tested, read-out: IC50) | SMILES | CC75 [1] | IC50 [2] | IC50 [5]
1 | 1 nM | 8 nM | 1 nM | 1 nM |  |  |  |  |  | COc1ccc(C(c2ccc(C=Nn3nnnc3N)cc2O)c2ccc(C=Nn3nnnc3N)cc2O)cc1 (stereo not drawn) [Example 2, 5,5′-Bis[1-(((5-amino-1H-tetrazolyl)imino)methyl)]-4″-methoxyphenyl-2,2′-benzylidenebisphenol] | >150 µM |  | 
2 | 10 nM | 460 nM | 50 nM | 50 nM |  |  |  |  |  | Nc1ncnn1N=Cc1ccc(O)c(C(c2ccc(O)cc2)c2cc(C=Nn3ncnc3N)ccc2O)c1 (stereo not drawn) [Example 3, 5,5′-Bis[1-(((5-amino-1H-1,2,4 triazolyl)imino)methyl)]-2,2′, 4″t-methylidyne trisphenol] | 12.5 µM |  | 170 nM
3 | 270 nM | 150 nM | 110 nM | 110 nM |  |  |  |  |  | Nc1nncn1N=Cc1ccc(O)c(C(c2ccc(O)cc2)c2cc(C=Nn3cnnc3N)ccc2O)c1 (stereo not drawn) [Example 4, 5,5′-Bis[4-(((3-amino-4H-1,2,4-triazolyl)imino)methyl)]-2,2′,4″-methylidyne trisphenol] | 18.8 µM |  | 
4 | 1700 nM | 1900 nM | 90 nM | 90 nM |  |  |  |  |  | Nc1nnn(N=Cc2ccc(C(c3ccc(O)cc3)c3ccc(C=Nn4nnc(N)n4)cc3O)c(O)c2)n1 (stereo not drawn) [Example 5, 5,5′-Bis[2-(((5-amino-2H-tetrazolyl)imino)methyl)]-2,2′,4″-methylidynetrisphenol] | >50.0 µM |  | 1200 nM

Further lines, the compound ahead of its results:

Row | SMILES | IC50 [3] | IC50 [4] | IC50 [6, 7] | IC50 [6, 8] | IC50 ([3]; Bovine orthopneumovirus) | IC50 [4, 9] | IC50 [5, 9] | IC50 ([6]; human respiratory syncytial virus, HEp-2, human RSV subtype A, concentration protecting 50% of cell monolayer from virus-induced cytopathic effect, HEp2 cells, 60 hours, read-out: IC50 RSV-A) | IC50 ([6]; human respiratory syncytial virus, Activity against human RSV subtype A (Table 2), values marked 2: protection achieved only 70-90% at highest concentrations tested, read-out: IC50) | CC75 [1] | IC50 [2] | IC50 [5]
5 | Nc1nnnn1N=Cc1ccc(O)c(C(c2ccc(O)cc2)c2cc(C=Nn3nnnc3N)ccc2O)c1 (stereo not drawn) [Example 1, 5,5′-Bis[1-(((5-amino-1H-tetrazolyl)imino)methyl)]2,2′,4″-methylidynetrisphenol] | 3 nM | 8 nM | 1 nM | 1 nM |  |  |  |  |  | >12.5 µM | 1 nM | 2 nM
6 | Cc1nnnn1/N=C/c1ccc(O)c(C(c2ccc(O)cc2)c2cc(/C=N/n3nnnc3C)ccc2O)c1 [Example 6, 5,5′-Bis[1-(((5-methyl-1H-tetrazolyl)imino)methyl)]-2,2′,4″-methylidynetrisphenol] | 1 nM | 2 nM | 1 nM | 1 nM |  |  |  |  |  | 3.1 µM | 1 nM | 1 nM
7 | Nc1nnnn1N=Cc1ccc(C(c2ccccc2)c2ccc(C=Nn3nnnc3N)cc2O)c(O)c1 (stereo not drawn) [Example 7, 5,5′-Bis[1-(((5-amino-1H-tetrazolyl)imino)methyl)]-2,2′-benzylidenebisphenol] |  |  | 1 nM | 1 nM |  |  |  |  |  | >6.3 µM |  | 
8 | Nc1nnnn1N=Cc1ccc(O)c(Cc2cc(C=Nn3nnnc3N)ccc2O)c1 [Example 8] | 16200 nM | 47300 nM | 370 nM | 370 nM |  |  |  |  |  | 9.4 µM |  | 
9 | NC(=O)c1ncn([C@@H]2O[C@H](CO)[C@@H](O)[C@H]2O)n1 [Ribavirin, 1-beta-D-ribofuranosyl-1H-1,2,4-triazole-3-carboxamide, reference compound] |  |  |  |  | 7500 nM | 17700 nM | 15500 nM | 24300 nM | 24300 nM | 9.4 µM | 3300 nM | 

— patent publication US6495580B1, “Compounds, compositions and methods for treating or preventing pneumovirus infection and associated diseases” (ViroPharma Incorporated, priority 1998, dated 2002)
